From patent US12344610B2, “APOL1 inhibitors and methods of use” (Maze Therapeutics, Inc., priority 2022, dated 2025)
pEC50: −log10 of the molar value. Where two headings read alike, the source gives them in different places.

Assays:
Format in all cases: cell-based
[1] = tested on: Trypanosoma brucei Lister 427 VSG221 with APOL1 G2 recombinant protein; assay: APOL1 G2 trypanosome cell rescue assay (Example B5); settings: geometric mean of at least 2 assay runs, † = single assay run
How it was run: (§1)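 Compounds in duplicate 2-fold, 11-point series with 0.4% DMSO final. Next, tag-free mature APOL1 variant protein went in from a 2 μg/mL solution, then trypanosomes to 250 per well. Plates incubated 20 h humidified at 37° C, equilibrated to room temperature, and CellTiter-Glo added for luminescence.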

[2] = tested on: Trypanosoma brucei Lister 427 VSG221 with APOL1 G1 recombinant protein; assay: APOL1 G1 trypanosome cell rescue assay (Example B5); settings: geometric mean of at least 2 assay runs, † = single assay run
How it was run: as §1

[3] = tested on: Trypanosoma brucei Lister 427 VSG221 with APOL1 G0 recombinant protein; assay: APOL1 G0 trypanosome cell rescue assay (Example B5); settings: geometric mean of at least 2 assay runs, † = single assay run
How it was run: as §1

[4] = tested on: HEK293 clonal cell line overexpressing APOL1 G1; assay: APOL1 G1 HEK293 cell rescue assay (Example B3); settings: geometric mean of at least 2 runs, † = single run, ¥ = concentration at 50% rescue estimated (no sigmoidal curve)
How it was run: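 HEK293 clonal line overexpressing APOL1 G1; EC50 is half-maximal reversal of APOL1-induced cell death. Values are the geometric mean of ≥2 runs on separate days, each run the average of duplicate wells. Where no sigmoidal curve could be fitted, the concentration giving 50% rescue was estimated.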

[5] = Trypanosoma brucei, 20 h, read-out: APOL1 G2 Trypanosome Rescue EC50, Trypanosoma brucei Lister 427 VSG221 with APOL1 G2 recombinant protein, 20 hours, CellTiter-Glo
[6] = Trypanosoma brucei, 20 h, read-out: APOL1 G1 Trypanosome Rescue EC50, Trypanosoma brucei Lister 427 VSG221 with APOL1 G1 recombinant protein, 20 hours, CellTiter-Glo
[7] = Trypanosoma brucei, 20 h, read-out: APOL1 G0 Trypanosome Rescue EC50, Trypanosoma brucei Lister 427 VSG221 with APOL1 G0 recombinant protein, 20 hours, CellTiter-Glo
[8] = Homo sapiens, HEK293, HEK293 clonal line overexpressing APOL1 G1
[9] = read-out: APOL1 G1 Trypanosome Rescue EC50, Trypanosoma brucei Lister 427 VSG221 with APOL1 G1 recombinant protein, 20 hours, CellTiter-Glo
[10] = read-out: APOL1 G0 Trypanosome Rescue EC50, Trypanosoma brucei Lister 427 VSG221 with APOL1 G0 recombinant protein, 20 hours, CellTiter-Glo
[11] = read-out: APOL1 G2 Trypanosome Rescue EC50, Trypanosoma brucei Lister 427 VSG221 with APOL1 G2 recombinant protein, 20 hours, CellTiter-Glo
[12] = HEK293 clonal line overexpressing APOL1 G1

Row | SMILES | pEC50 [1, 5] | pEC50 [2, 6] | pEC50 [3, 7] | pEC50 [4, 8] | pEC50 [2, 9] | pEC50 [3, 10] | pEC50 [1, 11] | pEC50 [4, 12]
1 | C[C@@H](COc1ccc(S(C)(=O)=O)cc1)N1CCC2(CC1)C(=O)Nc1ccc(Cl)cc12 (single isomer, unassigned) [Compound 10] | 7.03 | 6.45 | 6.45 | 6.35 | – | – | – | –
2 | C[C@@H](COc1ccc(S(C)(=O)=O)cc1)N1CCC2(CC1)C(=O)Nc1ccccc12 (single isomer, unassigned) [Compound 12] | 6.31 | 5.71 | 5.71 | 5.94 | – | – | – | –
3 | C[C@@H](CN1CCC2(CC1)C(=O)Nc1ccccc12)Oc1ccc(S(C)(=O)=O)cc1 (single isomer, unassigned) [Compound 13] | < 5.40 | < 5.40 | < 5.40 | < 4.52 | – | – | – | –
4 | O=C1NCC2c3ccc(OCCN4CCC5(CC4)C(=O)Nc4ccc(Cl)cc45)cc3CCN12 (single isomer, unassigned) [Compound 116, (S) or (R)-5-chloro-1′-[2-({3-oxo-1H,2H,3H,5H,6H,10bH-imidazo[4,3-a]isoquinolin-8-yl}oxy)ethyl]-1,2-dihydrospiro[indole-3,4′-piperidin]-2-one] | 7.16 | – | – | 6.63 | 6.68 | 6.83 | – | –
5 | O=C1NCC2c3ccc(OCCN4CCC5(CC4)C(=O)Nc4ccc(Cl)cc45)cc3CCN12 (single isomer, unassigned) [Compound 117, (R) or (S)-5-chloro-1′-[2-({3-oxo-1H,2H,3H,5H,6H,10bH-imidazo[4,3-a]isoquinolin-8-yl}oxy)ethyl]-1,2-dihydrospiro[indole-3,4′-piperidin]-2-one] | – | – | – | – | 6.37 | 6.51 | 6.93 | 6.76
6 | N#Cc1ccc2c(c1)C1(CCN(CCOc3ccc4c(c3)CCN3C(=O)NCC43)CC1)C(=O)N2 (single isomer, unassigned) [Compound 120, (R) or (S)-2-oxo-1′-[2-({3-oxo-1H,2H,3H,5H,6H,10bH-imidazo[4,3-a]isoquinolin-8-yl}oxy)ethyl]-1,2-dihydrospiro[indole-3,4′-piperidine]-5-carbonitrile] | 6.46 | 5.90 | 6.09 | – | – | – | – | < 5.28
7 | O=C1CCC2c3ccc(OCCN4CCC5(CC4)C(=O)Nc4ccc(Cl)cc45)cc3CCN12 (single isomer, unassigned) [Compound 122, (S) or (R)-5-chloro-1′-[2-({3-oxo-1H,2H,3H,5H,6H,10bH-pyrrolo[2,1-a]isoquinolin-8-yl}oxy)ethyl]-1,2-dihydrospiro[indole-3,4′-piperidin]-2-one] | 6.97 | 6.47 | 6.60 | 6.73 | – | – | – | –
8 | O=C1CCC2c3ccc(OCCN4CCC5(CC4)C(=O)Nc4ccc(Cl)cc45)cc3CCN12 (single isomer, unassigned) [Compound 123, (R) or (S)-5-chloro-1′-[2-({3-oxo-1H,2H,3H,5H,6H,10bH-pyrrolo[2,1-a]isoquinolin-8-yl}oxy)ethyl]-1,2-dihydrospiro[indole-3,4′-piperidin]-2-one] | – | – | – | – | 6.59 | 6.75 | 7.11 | 6.63
9 | CC(c1ccc(OCCN2CCC3(CC2)C(=O)Nc2ccc(C#N)cc23)cc1)S(C)(=O)=O (single isomer, unassigned) [Compound 134, (S) or (R)-1′-{2-[4-(1-methanesulfonylethyl)phenoxy]ethyl}-2-oxo-1,2-dihydrospiro[indole-3,4′-piperidine]-5-carbonitrile] | 6.56 | 6.00 | 6.07 | 6.00 | – | – | – | –
10 | CC(c1ccc(OCCN2CCC3(CC2)C(=O)Nc2ccc(C#N)cc23)cc1)S(C)(=O)=O (single isomer, unassigned) [Compound 135, (R) or (S)-1′-{2-[4-(1-methanesulfonylethyl)phenoxy]ethyl}-2-oxo-1,2-dihydrospiro[indole-3,4′-piperidine]-5-carbonitrile] | – | – | – | – | 5.92 | 5.97 | 6.52 | 5.94
11 | CC(c1c(F)cc(OCCN2CCC3(CC2)C(=O)Nc2ccc(C#N)cc23)cc1F)S(C)(=O)=O (single isomer, unassigned) [Compound 138, (S) or (R)-1′-{2-[3,5-difluoro-4-(1-methanesulfonylethyl)phenoxy]ethyl}-2-oxo-1,2-dihydrospiro[indole-3,4′-piperidine]-5-carbonitrile] | 6.78 | 6.23 | 6.49 | 6.60 | – | – | – | –
12 | CC(c1c(F)cc(OCCN2CCC3(CC2)C(=O)Nc2ccc(C#N)cc23)cc1F)S(C)(=O)=O (single isomer, unassigned) [Compound 139, (R) or (S)-1′-{2-[3,5-difluoro-4-(1-methanesulfonylethyl)phenoxy]ethyl}-2-oxo-1,2-dihydrospiro[indole-3,4′-piperidine]-5-carbonitrile] | – | – | – | – | 6.27 | 6.47 | 6.83 | 6.42
13 | CC(c1c(F)cc(OCCN2CCC3(CC2)C(=O)Nc2ccc(Cl)cc23)cc1F)S(C)(=O)=O (single isomer, unassigned) [Compound 142, (S) or (R)-5-chloro-1′-{2-[3,5-difluoro-4-(1-methanesulfonylethyl)phenoxy]ethyl}-1,2-dihydrospiro[indole-3,4′-piperidin]-2-one] | 7.45 | 7.01 | 7.20 | 6.72 | – | – | – | –
14 | CC(c1c(F)cc(OCCN2CCC3(CC2)C(=O)Nc2ccc(Cl)cc23)cc1F)S(C)(=O)=O (single isomer, unassigned) [Compound 143, (R) or (S)-5-chloro-1′-{2-[3,5-difluoro-4-(1-methanesulfonylethyl)phenoxy]ethyl}-1,2-dihydrospiro[indole-3,4′-piperidin]-2-one] | – | – | – | – | 7.19 | 7.39 | 7.68 | 6.90
15 | CN=S(C)(=O)c1ccc(OCCN2CCC3(CC2)C(=O)Nc2ccc(Cl)cc23)cc1 (single isomer, unassigned) [Compound 148, (S) or (R)-5-chloro-1′-(2-{4-[methyl(methylimino)oxo-λ^6-sulfanyl]phenoxy}ethyl)-1,2-dihydrospiro[indole-3,4′-piperidin]-2-one] | 7.21 | 6.70 | 6.85 | 6.55 | – | – | – | –
16 | CN=S(C)(=O)c1ccc(OCCN2CCC3(CC2)C(=O)Nc2ccc(Cl)cc23)cc1 (single isomer, unassigned) [Compound 149, (R) or (S)-5-chloro-1′-(2-{4-[methyl(methylimino)oxo-λ^6-sulfanyl]phenoxy}ethyl)-1,2-dihydrospiro[indole-3,4′-piperidin]-2-one] | – | – | – | – | 6.76 | 6.93 | 7.29 | 6.61
17 | CN=S(C)(=O)c1ccc(OCCN2CCC3(CC2)C(=O)Nc2ccc(C#N)cc23)cc1 (single isomer, unassigned) [Compound 151, (S) or (R)-1′-(2-{4-[methyl(methylimino)oxo-λ^6-sulfanyl]phenoxy}ethyl)-2-oxo-1,2-dihydrospiro[indole-3,4′-piperidine]-5-carbonitrile] | 6.46 | 5.88 | 5.98 | ~5.60 | – | – | – | –
18 | CN=S(C)(=O)c1ccc(OCCN2CCC3(CC2)C(=O)Nc2ccc(C#N)cc23)cc1 (single isomer, unassigned) [Compound 152, (R) or (S)-1′-(2-{4-[methyl(methylimino)oxo-λ^6-sulfanyl]phenoxy}ethyl)-2-oxo-1,2-dihydrospiro[indole-3,4′-piperidine]-5-carbonitrile] | – | – | – | – | 5.82 | 5.98 | 6.38 | < 5.38
19 | O=C1Nc2ccc(Cl)cc2C12CCN(CCOc1ccc(C3CCCS3(=O)=O)cc1)CC2 (single isomer, unassigned) [Compound 176, (S) or (R)-2-[4-(2-{5-chloro-2-oxo-1,2-dihydrospiro[indole-3,4′-piperidin]-1′-yl}ethoxy)phenyl]-1λ^6-thiolane-1,1-dione] | 7.35 | 6.75 | – | 6.80 | – | 6.92 | – | –
